Assay results taken from patent US20260042764A1, “COMPOSITIONS AND METHODS FOR INHIBITION OF KRAS” (TheRas, Inc., priority 2022, published 2026).

Assays:
[1] = system: RKN cells (KRAS G12V); test: Cell-based pERK HTRF assay in RKN cells (Biological Example 5)
Protocol: (§1) Biological Example 5: Cell-based PERK HTRF assay in AsPC-1, SW1900, HPAC, Capan-2, RKN, H358, HCT116, KP-2, H1573, A549, MKN1, and HT1080 cells
(§2) The inhibition of ERK phosphorylation, as measured using the HTRF Advanced Phospho-ERK 1/2 (Thr202/Tyr204) Detection Assay kit (Perkin Elmer), was used to determine the effectiveness of test compounds in disrupting KRAS-driven protein/effector signaling in cells.
(§3) On day 1, cells were seeded into 96-well plates at 2.5×10^4 cells/well in 100 μL of complete growth media supplemented with 10% fetal bovine serum (FBS) and incubated at 37° C., in the presence of 5% CO2.
(§4) On day 2, cells were treated with compounds diluted in DMSO at 0.25% final DMSO concentration. Compounds were dosed in a 9-point concentration curve with three-fold dilution between concentrations. Cells were incubated in the presence of compound for two hours at 37° C. Following this treatment period, cells were harvested by aspirating the media, adding 40 μL of kit-supplied 1x lysis buffer per well, and shaking for 30 minutes at 250 rpm at room temperature.
(§5) Following cell lysis, samples were homogenized by pipetting up and down twenty times and 16 μL of cell lysate per well was transferred from the 96-well cell culture plate to two wells of a 384-well detection plate. A complete detection buffer was prepared by diluting D2 and Eu Cryptate antibodies 1:20 in kit-provided detection solution, 4 μL of complete detection buffer was then added to each well with lysate. Plates were incubated with gentle rocking for 24 hours at 4° C.
(§6) Following this incubation period, plates were centrifuged at 500×g for one minute and analyzed on a CLARIOstar plate reader. Data was imported into Microsoft Excel and the signal from the 665 nm channel was divided by the signal from the 620 nm channel. % pERK was calculated as: […]
(§7) Data was imported to the Prism software package (Graphpad) and EC50 values were calculated using the log (inhibitor) vs, response—variable slopc (Four parameters) model.

[2] = system: Capan-2 cells (KRAS G12V); test: 3D Cell viability assay in Capan-2 cells (Biological Example 6); assay type: cell-based; settings: Capan-2 (KRAS G12V) spheroids, 72 hours
Protocol: (§8) Biological Example 6: 3D Cell viability assay in AsPC-1, SW1900, HPAC, Capan-2, RKN, H358, HCT116, KP-2, H1573, A549, MKN1, and HT1080 cells
(§9) The inhibition of cellular viability as a result of test compound treatment in a spheroid assay was measured using the CellTiter-Glow 3D Cell Viability Assay (Promega).
(§10) On Day 1, 1000 cells per well were seeded in 150 μL of complete growth media supplemented with 10% fetal bovine serum (FBS) and incubated at 37° C., in the presence of 5% CO2 in 96-well ultra-low attachment microplates (Corning) for 48 hours undisturbed to allow spheroids to form.
(§11) Following spheroid formation, cells were treated with compounds diluted in DMSO at 0.25% final DMSO concentration. Compounds were dosed in a 9-point concentration curve with three-fold dilution between concentrations. Cells were incubated in the presence of compound for 72 hours at 37° C., in the presence of 5% CO2.
(§12) Following this incubation period, the kit-provided CTG reagent was allowed to equilibrate for 30 minutes at room temperature, 150 μL of equilibrated CTG reagent was added to each well, and the plate was sealed before shaking at 250 rpm for 10 minutes at room temperature to lyse the cells, 150 μL of lysate per well was transferred to a 96-well plate and luminescence was read on a CLARIOstar plate reader.
(§13) Data was imported into the Prism software package (Graphpad) and EC50 values were calculated using the log (inhibitor) vs, response—variable slope (Four parameters) model.

[3] = system: HPAC cells (KRAS G12D); test: Cell-based pERK HTRF assay in HPAC cells (Biological Example 5)
Protocol: as §1, §2, §3, §4, §5, §6, §7

[4] = system: AsPC-1 cells (KRAS G12D); test: Cell-based pERK HTRF assay in AsPC-1 cells (Biological Example 5)
Protocol: as §1, §2, §3, §4, §5, §6, §7

[5] = system: H358 cells (KRAS G12C); test: Cell-based pERK HTRF assay in H358 cells (Biological Example 5)
Protocol: as §1, §2, §3, §4, §5, §6, §7

[6] = system: HPAC cells (KRAS G12D); test: 3D Cell viability assay in HPAC cells (Biological Example 6); assay type: cell-based; settings: HPAC (KRAS G12D) spheroids
Protocol: as §8, §9, §10, §11, §12, §13

[7] = system: RKN cells (KRAS G12V); test: 3D Cell viability assay in RKN cells (Biological Example 6); assay type: cell-based; settings: RKN (KRAS G12V) spheroids, 72 hours
Protocol: as §8, §9, §10, §11, §12, §13

[8] = system: SW1900 cells (KRAS G12D); test: 3D Cell viability assay in SW1900 cells (Biological Example 6); assay type: cell-based; settings: SW1990 (text: SW1900, KRAS G12D) spheroids, 72 hours
Protocol: as §8, §9, §10, §11, §12, §13

[9] = system: HCT116 cells (KRAS G13D); test: Cell-based pERK HTRF assay in HCT116 cells (Biological Example 5); settings: Homo sapiens, HCT-116
Protocol: as §1, §2, §3, §4, §5, §6, §7

[10] = system: HT1080 cells (NRAS); test: Cell-based pERK HTRF assay in HT1080 cells (Biological Example 5); settings: Homo sapiens, HT-1080
Protocol: as §1, §2, §3, §4, §5, §6, §7

[11] = system: HT1080 cells (NRAS); test: 3D Cell viability assay in HT1080 cells (Biological Example 6); assay type: cell-based; settings: Homo sapiens, HT-1080; HT1080 (NRAS) spheroids, 72 hours
Protocol: as §8, §9, §10, §11, §12, §13

[12] = Homo sapiens, ASPC1, AsPC-1 (KRAS G12D) cells
[13] = Homo sapiens, NCI-H358, H358 (KRAS G12C) cells

Row | Structure (SMILES) | IC50 [1] [nM] | IC50 ([2]; Homo sapiens) [nM] | IC50 ([3]; Homo sapiens, HPAC) [nM] | IC50 [4, 12] [nM] | IC50 [5, 13] [nM] | IC50 ([6]; Homo sapiens, HPAC, 72 h) [nM] | IC50 [7] [nM] | IC50 ([8]; Homo sapiens) [nM] | IC50 [9] [nM] | IC50 [2] [nM] | IC50 [3] [nM] | IC50 ([4]; AsPC-1 (KRAS G12D) cells) [nM] | IC50 ([5]; H358 (KRAS G12C) cells) [nM] | IC50 ([6]; 72 hours) [nM] | IC50 [8] [nM] | IC50 [10] [nM] | IC50 [11] [nM]
1 | CCN(c1nc(OC[C@@]23CCCN2C[C@H](F)C3)nc2c(F)c(-c3ccc(F)c4sc(N)c(C#N)c34)c(C(F)(F)F)cc12)[C@H]1CCN(C(=O)C2CC2)[C@@H]1C (atropisomer, axis not shown) [Compound 579] | ≤ 100 | ≤ 100 | > 1000 | ≤ 100 | ≤ 100 | 100 to 1000 | ≤ 100 | ≤ 100 | – | – | – | – | – | – | – | – | –
2 | CCN(c1nc(OC[C@@]23CCCN2C[C@H](F)C3)nc2c(F)c(-c3ccc(F)c4sc(N)c(C#N)c34)c(C(F)(F)F)cc12)[C@H]1CCN(C(=O)c2ncco2)C1 (atropisomer, axis not shown) [Compound 584] | ≤ 100 | ≤ 100 | 100 to 1000 | ≤ 100 | ≤ 100 | ≤ 100 | ≤ 100 | ≤ 100 | – | – | – | – | – | – | – | – | –
3 | CCN(c1nc(OC[C@@]23CCCN2C[C@H](F)C3)nc2c(F)c(-c3ccc(F)c4sc(N)c(C#N)c34)c(C(F)(F)F)cc12)[C@H]1C[C@@H](C)N(C(=O)C2COC2)C1 (atropisomer, axis not shown) [Compound 586] | ≤ 100 | ≤ 100 | 100 to 1000 | ≤ 100 | ≤ 100 | ≤ 100 | ≤ 100 | ≤ 100 | – | – | – | – | – | – | – | – | –
4 | CCN(c1nc(OC[C@@]23CCCN2C[C@H](F)C3)nc2c(F)c(-c3ccc(F)c4sc(N)c(C#N)c34)c(C(F)(F)F)cc12)[C@H]1CCN(C(=O)N2CC(F)C2)C1 (atropisomer, axis not shown) [Compound 606] | ≤ 100 | ≤ 100 | ≤ 100 | ≤ 100 | ≤ 100 | 100 to 1000 | ≤ 100 | ≤ 100 | – | – | – | – | – | – | – | – | –
5 | C[C@H]1Cn2nc(C(=O)N(C)C)cc2CN1c1nc(OC[C@@]23CCCN2C[C@H](F)C3)nc2c(F)c(-c3ccc(F)c4sc(N)c(C#N)c34)c(C(F)(F)F)cc12 (atropisomer, axis not shown) [Compound 610] | ≤ 100 | ≤ 100 | ≤ 100 | ≤ 100 | ≤ 100 | 100 to 1000 | ≤ 100 | ≤ 100 | – | – | – | – | – | – | – | – | –
6 | C/C=C/C(=O)N1CC[C@H](N(CC)c2nc(OC[C@@]34CCCN3C[C@H](F)C4)nc3c(F)c(-c4ccc(F)c5sc(N)c(C#N)c45)c(C(F)(F)F)cc23)C1 (atropisomer, axis not shown) [Compound 674] | ≤ 100 | ≤ 100 | ≤ 100 | ≤ 100 | ≤ 100 | ≤ 100 | ≤ 100 | ≤ 100 | – | – | – | – | – | – | – | – | –
7 | CCN(c1nc(OC[C@@]23CCCN2C[C@H](F)C3)nc2c(F)c(-c3ccc(F)c4sc(N)c(C#N)c34)c(C(F)(F)F)cc12)[C@H]1C[C@H](COC)N(C(=O)C2CC2)C1 (atropisomer, axis not shown) [Compound 696] | ≤ 100 | ≤ 100 | – | ≤ 100 | ≤ 100 | – | ≤ 100 | ≤ 100 | – | – | – | – | – | – | – | – | –
8 | CCN(c1nc(OC[C@@]23CCCN2C[C@H](F)C3)nc2c(F)c(-c3ccc(F)c4sc(N)c(C#N)c34)c(C(F)(F)F)cc12)[C@H]1C[C@H](C)N(C(=O)OC)C1 (atropisomer, axis not shown) [Compound 704] | ≤ 100 | ≤ 100 | – | ≤ 100 | ≤ 100 | – | ≤ 100 | ≤ 100 | – | – | – | – | – | – | – | – | –
9 | CCN(c1nc(OC[C@@]23CCCN2C[C@H](F)C3)nc2c(F)c(-c3ccc(F)c4sc(N)c(C#N)c34)c(C(F)(F)F)cc12)[C@H]1C[C@H](C)N(C(=O)[C@@H]2CC2(F)F)C1 (atropisomer, axis not shown) [Compound 751] | ≤ 100 | ≤ 100 | ≤ 100 | – | ≤ 100 | ≤ 100 | ≤ 100 | ≤ 100 | ≤ 100 | – | – | – | – | – | – | – | –
10 | CCN(c1nc(OC[C@@]23CCCN2C[C@H](F)C3)nc2c(F)c(-c3ccc(F)c4sc(N)c(C#N)c34)c(C(F)(F)F)cc12)[C@H]1C[C@H](C)N(C(=O)N2CC(OC)C2)C1 (atropisomer, axis not shown) [Compound 764] | ≤ 100 | ≤ 100 | 100 to 1000 | ≤ 100 | ≤ 100 | > 1000 | ≤ 100 | ≤ 100 | – | – | – | – | – | – | – | – | –
11 | Cc1c(C(=O)N(C)C)nn2c1CN(c1nc(OC[C@@]34CCCN3C[C@H](F)C4)nc3c(F)c(-c4ccc(F)c5sc(N)c(C#N)c45)c(C(F)(F)F)cc13)CC2 (atropisomer, axis not shown; (aS)) [Compound 590, 5-((S)-7-(2-amino-3-cyano-7-fluorobenzo[b]thiophen-4-yl)-8-fluoro-2-(((2R,7aS)-2-fluorotetrahydro-1H-pyrrolizin-7a(5H)-yl)methoxy)-6-(trifluoromethyl)quinazolin-4-yl)-N,N,3-trimethyl-4,5,6,7-tetrahydropyrazolo[1,5-a]pyrazine-2-carboxamide] | ≤ 100 | – | – | – | – | – | ≤ 100 | – | – | ≤ 100 | ≤ 100 | ≤ 100 | ≤ 100 | ≤ 100 | ≤ 100 | – | –
12 | CCN(c1nc(OC[C@@]23CCCN2C[C@H](F)C3)nc2c(F)c(-c3ccc(F)c4sc(N)c(C#N)c34)c(C(F)(F)F)cc12)[C@H]1CC(=O)N2CCC[C@@H]12 (atropisomer, axis not shown; (aS)) [Compound 697, 2-amino-4-((S)-4-(ethyl((1S,7aS)-3-oxohexahydro-1H-pyrrolizin-1-yl)amino)-8-fluoro-2-(((2R,7aS)-2-fluorotetrahydro-1H-pyrrolizin-7a(5H)-yl)methoxy)-6-(trifluoromethyl)quinazolin-7-yl)-7-fluorobenzo[b]thiophene-3-carbonitrile] | ≤ 100 | ≤ 100 | ≤ 100 | ≤ 100 | ≤ 100 | ≤ 100 | ≤ 100 | ≤ 100 | – | – | – | – | – | – | – | – | –
13 | CCN(c1nc(OC[C@@]23CCCN2C[C@H](F)C3)nc2c(F)c(-c3ccc(F)c4sc(N)c(C#N)c34)c(C(F)(F)F)cc12)[C@H]1C[C@H](C)N(C(C)=O)C1 [Compound 463] | – | ≤ 100 | 100 to 1000 | 100 to 1000 | ≤ 100 | > 1000 | – | ≤ 100 | – | – | – | – | – | – | – | > 1000 | > 1000
14 | CCN(c1nc(OCC23CCCN2CC(F)C3)nc2c(F)c(-c3ccc(F)c4sc(N)c(C#N)c34)c(C(F)(F)F)cc12)C1CC(C)N(C(=O)N2CC(F)C2)C1 (stereo not shown) [Compound 759] | ≤ 100 | – | – | – | – | – | ≤ 100 | – | – | ≤ 100 | – | ≤ 100 | ≤ 100 | – | ≤ 100 | – | –
